# Results from article PMC7865627, “Small Molecule-Based Prodrug Targeting Prostate Specific Membrane Antigen for the Treatment of Prostate Cancer” (Cancers, 2021).
# “Also recorded” adds a separate entry of the source. *1 amine or outer side, *2 acyl side, *3 side chain or, on linkers, in order; H or OH if unused. Where a SMILES comes first, the peptide text is derived from it. Bridges are numbered along the chain shown (N, C = ends). Roman numbers before positions name the chains, in order. [ ]: non-standard residue; d: D form. The star is where a group is joined. Hexanoyl(6-succinimido-3yl) = O=C1CC([*:1])C(=O)N1CCCCCC(=O)[*:2]; Dolaproine = CO[C@@H]([C@@H]1CCCN1)[C@@H](C)C(=O)O; Dil = CC[C@H](C)[C@H](NC)[C@@H](CC(=O)O)OC; γGlu = O=C(O)[C@H](CCC(=O)[*:2])N[*:1]; PABC = O=C(OCc1ccc(N[*:1])cc1)[*:2]; X2 = C[C@@H](N*)[C@@H](O)c1ccccc1; X1 = O=C(C1CCC(CN[*:1])CC1)[*:2]; Cit = NC(=O)NCCC[C@H](N)C(=O)O; NMeV = CN[C@H](C(=O)O)C(C)C; CO = O=C([*:1])[*:2]; Ahx = NCCCCCC(=O)O
# Tests used:
# [1] = target: T1, human liver cathepsin B (Homo sapiens, UniProt P07858); experiment: Enzymatic cleavage by cathepsin B, HPLC analysis; assay type: in vitro ADME; conditions: activated human liver cathepsin B, 2 μM conjugate, 37 °C, triplicate
# T1 construct: purchased Anthens Research and Technology, Anthens, AL, USA (so in the source); host or cells: human liver (tissue-derived enzyme)
# Experimental: (§1) Cathepsin is a prevalent protease that PSMA internalized ligands will encounter as they enter into late endosomes/lysosomes. To investigate if PSMA-targeted drug conjugates were cleavable by cathepsin B, the two conjugates were incubated with or without cathepsin protease and chromatographed by high performance liquid chromatography (HPLC).
# (§2) At different time intervals, 40 μL of the solution was taken out into tubes loaded with 1 μL of 1 mM E64 protease inhibitor. […] Studies were performed in triplicate.
# [2] = Stability on incubation in PBS (without cathepsin), HPLC; assay type: in vitro ADME; conditions: incubation with PBS without cathepsin, triplicate
# Experimental: as §1, §2
# [3] = In vitro cytotoxicity assay (CCK-8), PC3pip; assay type: cell-based, human; conditions: human; for EC50 at 72 h: PC3pip cells
# Experimental: (§3) Cells (1000/well) were seeded in 96-well culture plates the day before treatment.
# [4] = In vitro cytotoxicity assay (CCK-8), PC3flu; assay type: cell-based, human; conditions: human, PC3flu cells
# Experimental: as §3
# [5] = test system: heterotopic PC3pip tumors; experiment: Heterotopic PC3pip tumor survival study; assay type: in vivo
# Experimental: (§4) Male athymic nude mice were implanted subcutaneously with 1 × 10^6 of PC3pip cells 100 μL of matrigel. When tumor size reached approximately 100 mm^3 (tumor volume = Length × width^2/2), mice received drugs through tail vein injection every 4 days with a total of five doses. Mice were treated every 4 days with a total of five doses. Animals were weighed and tumor size measured every other day for 90 days. Cures were defined as no tumor present at end of the 90-day study. When tumors became too large or animals were moribund they were euthanized. Five mice were used in each group.
# [6] = test system: heterotopic PC3flu tumors; experiment: Heterotopic PC3flu versus PC3pip tumor study; assay type: in vivo, mouse; conditions: 955 nmol/kg every 4 days, five doses, n = 5, p = 0.0493
# Experimental: as §4, with “group. […]” for “group.”
# drugs through tail vein inject every 4 days with total of 5 injections as indicated by the red arrows.
# Each group had 5 mice. Values are mean ± SD of 5 animals. The plots stopped when animals died during the experiments since values are represent as mean ± SD of 5 animals.
# (nmol/kg) Tumor Growth (nmol/kg) Therapeutic Index *
# *: Therapeutic index is defined by MTD/effective dose.
# PC3flu tumors. Treatment were scheduled every 4 days with a total of five doses as indicated by the red arrow. Each group had 5 mice. For tumor growth curves and body weight curves, values are mean ± SD of 5 animals. The plots stopped when animals died during the experiments since values are represent as mean ± SD of 5 animals. (A) Tumor growth curves of mice treated with 955 nmol/kg of PSMA-1-VcMMAE. […]
# [7] = test system: orthotopic PC3pip tumors; experiment: Orthotopic PC3pip survival study; assay type: in vivo, mouse; conditions: 3860 nmol/kg (so in the source) i.v. every 4 days, five doses, n = 5
# Experimental: Surgical orthotopic tumor implantation was performed as previously reported. Tumor growth/size was monitored using Siemens Acuson S2000 (Siemens AG. Munich, Germany) ultrasound scanner. When the tumors were at the appropriate size (5 mm diameter as measured by ultrasound, approximately 2 weeks) animals were given PSMA-1-VcMMAE, or PBS every 4 days with a total of five doses. Tumors were monitored every other day by ultrasound. Each group utilized five mice.
# [8] = test system: metastatic PC3pip tumor (intracardiac GFP-PC3pip cells); experiment: Metastatic PC3pip survival study; assay type: in vivo, mouse; conditions: 1910 nmol/kg every 4 days, five doses, 90 days, n = 8
# Experimental: Male athymic nude mice were injected into the left ventricle of the heart with 1 × 10^5 GFP labeled PC3pip cells to generate bone metastasis. One week later, mice received 1910 nmol/kg of PSMA-1-VcMMAE or PBS every 4 days with a total of five doses and the progression of disease was monitored by GFP imaging. Eight mice were used in each group.
# [9] = 3820 nmol/kg i.v. every 4 days, five doses, n = 5
smiles,measurement,setting,value
CC[C@H](C)[C@@H]([C@@H](CC(=O)N1CCC[C@H]1[C@H](OC)[C@@H](C)C(=O)N[C@H](C)[C@@H](O)c1ccccc1)OC)N(C)C(=O)[C@@H](NC(=O)[C@H](C(C)C)N(C)C(=O)OCc1ccc(NC(=O)[C@H](CCCNC(N)=O)NC(=O)[C@@H](NC(=O)CCCCCN2C(=O)CC(SC[C@H](NC(=O)[C@@H](CCC(=O)O)NC(=O)[C@@H](CCC(=O)O)NC(=O)[C@@H](CCC(=O)O)NC(=O)CCCCCNC(=O)C3CCC(CNC(=O)CC[C@H](NC(=O)N[C@@H](CCC(=O)O)C(=O)O)C(=O)O)CC3)C(=O)NCCCCCC(=O)N[C@@H](CCCCN)C(N)=O)C2=O)C(C)C)cc1)C(C)C (stereo partly shown) [PSMA-1-VcMMAE] (I: {Glu-CO-γGlu}-[X1][Ahx][dE][dE][dE]C[Ahx]K-NH2 / II: V[Cit][PABC][NMeV]V[Dil][Dolaproine]-X2; linker I:6-II:N via Hexanoyl(6-succinimido-3yl)),cleavage by cathepsin B (in words),[1],release of free MMAE
same,stability in PBS (in words),[2],stable
same,selectivity ratio at 72 h,"[3]; PC3pip and PC3flu cells, more potent for PC3pip than PC3flu, read-out: selectivity, differential cytotoxicity ratio between PC3pip and PC3flu cells",48
same,EC50 at 72 h,"[3]; 72 h, CCK-8, in the presence of 10 μM of PSMA-1, read-out: EC50, cytotoxicity to PC3pip cells + PSMA-1",241 ± 8.6 nM
same,EC50 at 72 h,"[3]; 72 h, CCK-8, in the presence of protease inhibitor E64 (50 μM given for the Cy5.5 conjugates), read-out: EC50, cytotoxicity to PC3pip cells + E64",31.1 ± 2.11 nM
same,EC50 at 72 h,"[3]; 72 h incubation, CCK-8, mean ± SD, read-out: EC50, cytotoxicity to PC3pip cells",4.64 ± 0.83 nM
same,EC50 at 72 h,"[4]; 72 h, CCK-8, in the presence of 10 μM of PSMA-1, read-out: EC50, cytotoxicity to PC3flu cells + PSMA-1",261 ± 5.6 nM
same,EC50 at 72 h,"[4]; 72 h, CCK-8, in the presence of protease inhibitor E64 (50 μM given for the Cy5.5 conjugates), read-out: EC50, cytotoxicity to PC3flu cells + E64",385 ± 5.3 nM
same,EC50 at 72 h,"[4]; 72 h incubation, CCK-8, mean ± SD, read-out: EC50, cytotoxicity to PC3flu cells",222 ± 2.8 nM
same,"tumor growth (in words), 191 nmol/kg","[5]; 191 nmol/kg i.v. every 4 days, five doses, n = 5",significant tumor inhibition
same,"cures, 955 nmol/kg","[5]; 955 nmol/kg i.v. every 4 days, five doses, n = 5",2/5
same,histology (H&E) of major organs (in words),"[5]; 3820 nmol/kg every 4 days, five injections, day 21",no noticeable histological changes; also recorded: no histological damage in salivary gland
same,"cure rate, 3820 nmol/kg",[5]; [9],60%
same,"cures (tumor-free mice at 90 days), 3820 nmol/kg",[5]; [9],three out of five
same,"survival over 90-day experimental time, 3820 nmol/kg",[5]; [9],all five mice survived
same,therapeutic index,[5]; MTD/effective dose,20
same,lowest dose to effectively inhibit tumor growth,"[5]; i.v. every 4 days, five doses, tumor growth inhibited for 30 days, n = 5",382 nmol/kg
same,body weight (in words),"[5]; up to 3820 nmol/kg i.v. every 4 days, five doses",No body weight loss
same,inhibition of PC3pip versus PC3flu tumor growth (in words),[6],significantly more effective at inhibiting PSMA-positive PC3pip tumor growth than PSMA-negative PC3flu tumor growth
same,"tumor free mice, orthotopic PC3pip, 3860 nmol/kg",[7],one
same,"cures, metastatic PC3pip",[8],six out of eight
same,"cure rate, metastatic PC3pip",[8]; started 1 week after cardiac injection,75%
